The record followed here is patent US9868690B2, “Prodrugs of monomethyl fumarate (MMF)” (RATIOPHARM GMBH, priority 2013, dated 2018).

Where a name gives a salt, the structure may show the parent alone.

The data set is described as follows: Kinetic of MMF-release during incubation in intestinal fluid from the minipig. It is filed as in vitro ADME, Göttingen SPF minipig. The settings on record: incubation in minipig small intestinal fluid diluted 1/20 v/v with 50 mM KH2PO4, pH 6.8, 37° C., samples 0-120 min (up to 1,320 min); reference DMF. How it is done:
Investigation and Comparison of the Kinetic of MMF-Release of the Different Compounds of the Present Invention and DMF During Incubation in Intestinal Fluid from the Minipig
Intestinal fluid samples were prepared at CiToxLAB Scantox A/S. The samples were taken from 1 female Göttingen SPF minipig from CiToxLAB Scantox A/S standard stock, originally obtained from Ellegaard Göttingen Minipigs A/S, DK-4261 Dalmose, Denmark. The minipig was 10 months old and the body weight was 21 kg. The minipig was identified by an individual number tagged to the pinna of one ear (animal number is documented in the raw data).
The minipig was fasted for approximately 28 hours before sampling of intestinal fluid. On the day of sampling, the minipig was weighed and anaesthetised by an intramuscular injection in the neck or in the left hind leg (about 0.3 ml per kg body weight) of a mixture of Zoletil 50 Vet., Virbac, France (125 mg tiletamine and 125 mg zolazepam), Rompun Vet., Bayer, Germany (20 mg xylazine/ml, 6.5 ml), Ketaminol Vet., Veterinaria AG, Switzerland (100 mg ketamine/ml, 1.5 ml) and Methadon DAK, Nycomed Danmark, Denmark (10 mg methadon/ml, 2.5 ml).
Intestinal fluid was obtained by flushing one jejunal segment, measuring 30.2 cm, with saline. Intestinal fluid together with saline used for flushing was placed in centrifuge tubes. All samples were frozen at −70° C. and shipped on dry ice to the Sponsor for further use.
• Instrument: Acquity UPLC system coupled with a TQ detector (triple quadruple mass spectrometer) UPLC Method: • Column: Phenomenex Kinetex C18, 100 A, 2.6 μm (150×4.6 mm) • flow: 0.4 ml/min • split: appr. 100 μl/min to MS • temperature 30° C. • solvent system (isocratic): • Solvent A 25% water with 0.1% acetic acid • Solvent B 75% methanol with 0.1% acetic acid • stoptime: 6 min • autosampler temperature: 8° C. • injection volume: 4 μl • retention time: MMF: 4.3 min • MEF: 4.7 min Mass Spectrometry • software: Masslynx 4.1 • detection mode: electrospray/negative ions (ESP−) • capillary voltage: 2.3 kV • source temperature: 100° C. • desolvation temperature: 450° C. • cone voltage: 18 V • desolvation gas: N2, 650 L/h • cone gas: N2, 20 L/h • collision gas: argon, appr. 3.3*10^−3 mbar • collision energy: 11 eV • MRM [m/z]: 128.94>85.03 Monomethylfumarate dwell:200 msec • 142.99>99.06 Monoethylfumarate (ISTD) dwell:200 msec 2.1.2. Stock and Calibration Solutions
Calibration solutions were prepared by serial dilution of SSMMF; diluted small intestinal fluid (diluted by 1/20 v/v with 50 mM KH2PO4, pH 6.8; (dil IF) was used as matrix. The dilution scheme is given below:
50 μl sample (calibration solution or sample of an incubation experiment with MMF prodrugs) was mixed with 50 μl WSISTD, 20 μl formic acid and 100 μl acetonitrile. This mixture was vortexed for 15 sec and centrifuged (13,000 rpm, 3 min). Thereafter, 4 μl of the supernatant were subjected to LC-MS analysis.
2.2. Incubation Experiments with DMF (Reference) and Compounds of the Invention
Stock solutions were prepared in DMSO or in DMSO with 10% (v/v) with water. Concentrations in stock solutions were 5.00, 2.50 and 1.67 mmol for compounds with one, two and three molar MMF equivalents.
In a HPLC glass vial, 8 μl of stock solution were mixed with 792 μl dil IF and the mixture was stirred (250 rpm) in a water bath (T=37° C.).
Immediately after mixing as well as at t=15 min, 30 min, 60 min, 90 min and 120 min, 50 μl were withdrawn and prepared for LC-MS analysis as described in chapter. 2.1.3.
Incubations were continued and in case the result of analysis of the 120 min indicated the presence of remaining intact MMF-prodrug, additional samples were taken (t=360 or 420 min and at 1,260 or 1,320 min) and analysed.
The concentration/peak area ratio data pairs were subjected to regression analysis with 1/x weighting and the resulting calibration equation was used to quantify the MMF content in incubation samples.
With `COC(=O)/C=C/C(=O)OCCN1CCS(=O)(=O)CC1` [Example 1a, (E)-But-2-enedioic acid 2-(1,1-dioxo-1-lambda*6*-thiomorpholin-4-yl)-ethyl ester methyl ester], the “hydrolysis to MMF (MMF release, LC-MS) compared with DMF” value (from here on “hydrolysis to MMF … compared with DMF”) is reported as “significantly slower hydrolysis to MMF than DMF”.

`COC(=O)/C=C/C(=O)OCCN1CC[S+]([O-])CC1` [Example 1a′, (E)-But-2-enedioic acid methyl ester 2-(1-oxo-1lambda*4*-thiomorpholin-4-yl)-ethyl ester]: the “hydrolysis to MMF … compared with DMF” value is “significantly slower hydrolysis to MMF than DMF”.

Turning to `COC(=O)/C=C/C(=O)OCCN1CCN(C)CC1` [Example 1b, (E)-But-2-enedioic acid methyl ester 2-(4-methyl-piperazin-1-yl) ethyl dihydrochloride], the “hydrolysis to MMF … compared with DMF” value is on record as “significantly slower hydrolysis to MMF than DMF”.

Regarding `COC(=O)/C=C/C(=O)OCCN1CCN(C(C)C)CC1` [Example 1c, (E)-But-2-enedioic acid methyl ester 2-(4-isopropyl-piperazin-1-yl) ethyl dihydrochloride], the “hydrolysis to MMF … compared with DMF” value is on record as “significantly slower hydrolysis to MMF than DMF”.

Consider `COC(=O)/C=C/C(=O)OCCN(CCOC(=O)/C=C/C(=O)OC)CCOC(=O)/C=C/C(=O)OC` [Example 2, tris-[2-(E)-3-methoxycarbonylacryloyloxy)-ethyl]amine hydrochloride], for which the “hydrolysis to MMF … compared with DMF” value is “significantly slower hydrolysis to MMF than DMF”.

On to `COC(=O)/C=C/C(=O)OCC(COC(=O)/C=C/C(=O)OC)OC(=O)/C=C/C(=O)OC` [Example 3, (E)-but-2-enedioic acid 2,3-bis-(-3-methoxycarbonyl-acryloyloxy)-propyl ester methyl ester], for which the “hydrolysis to MMF … compared with DMF” value is on record as “significantly slower hydrolysis to MMF than DMF”.

Take `COC(=O)/C=C/C(=O)OCOP(=O)(OC(C)(C)C)OC(C)(C)C` [Example 4a, (E)-but-2-enedioic acid di-tert-butoxy-phosphoryloxymethyl ester methyl ester]: the “hydrolysis to MMF … compared with DMF” value is given as “significantly slower hydrolysis to MMF than DMF”.

Take `COC(=O)/C=C/C(=O)OCCOC(=O)[C@@H](N)C(C)C` [Example 5a, (E)-but-2-enedioic acid 2-((S)-2-amino-3-methyl-butyrryloxy)-ethyl ester methyl ester hydrochloride]: the “hydrolysis to MMF … compared with DMF” value is “significantly slower hydrolysis to MMF than DMF”.

On to `COC(=O)/C=C/C(=O)OCc1oc(=O)oc1C` [Example 6, (E)-but-2-enedioic acid methyl ester5-methyl-2-oxo-[1,3]dioxol-4-yl methyl ester], for which the “hydrolysis to MMF … compared with DMF” value is “significantly slower hydrolysis to MMF than DMF”.
